Laboratory results published in patent publication US8383554B2, “Quantitative microarray of intact glycolipid CD1d interaction and correlation with cell-based cytokine production” (Academia Sinica, priority 2008, dated 2013).
Entries after “also recorded” stand apart in the source; their conditions may differ. Read-outs that look alike come from different tables or passages of the source.

How the values were obtained:
[1] = system: human Vα24+ NKT cell line co-cultured with Hela cells transfected with human CD1d; experiment: Cytokine secretion assay using human NKT cell lines, IFN-γ by ELISA; assay type: cell-based; conditions: 10 ng/ml glycolipid, 24 hours; for IFN-γ secretion (in words): relative to α-GalCer
Experimental: Generation of Vα24+ human NKT cell lines. Human NKT cell lines, expressing the Vα24+ T cell receptor (TCR), were generated as follows: Vα24+ T cells and CD14+ cells were isolated from leukopaks using magnetic beads (Miltenyi biotec, Auburn, Calif.) coupled to an anti-Vα24+ TCR monoclonal antibody and an anti-CD14 monoclonal antibody, respectively. Immature dendritic cells were generated from the CD14+ cells after a three-day incubation in the presence of 300 U/ml GM-CSF (R&D systems, Minneapolis, Minn.) and 100 U/ml IL-4 (R&D systems, Minneapolis, Minn.). Following irradiation with 3000 rads, the immature dendritic cells were co-cultured with syngeneic Vα24+ T cells in the presence of 100 ng/ml of α-galactosylceramide and 10 IU/ml of IL-2 (R&D systems, Minneapolis, Minn.) for 10 days.
Cytokine Secretion Assay using human NKT cell lines. Twenty-thousand cells of a human NKT cell line and 2×10^4 Hela cells transfected with human CD1d that had been irradiated for 10,000 rads, were co-cultured in the presence of 10 ng/ml of each glycolipid in a 96-well plate. After culture for 24 hours, the concentration of IFN-γ or IL-4 in the culture supernatants was determined by ELISA (BD Pharmingen, San Diego, Calif.).

[2] = molecular target: T1, mCD1d:Ig fusion protein (CD1d) (Mus musculus, UniProt P11609); experiment: Competitive binding assay on microarray (Ki in solution); conditions: for binding to CD1d in competition assay (in words): relative to α-GalCer or parent compound; for Ki: competition against surface compound 1, CD1d ~100-200 nM
T1 construct: purchased BD Bioscience
T1 sequence (P11609 22-305 limits assumed): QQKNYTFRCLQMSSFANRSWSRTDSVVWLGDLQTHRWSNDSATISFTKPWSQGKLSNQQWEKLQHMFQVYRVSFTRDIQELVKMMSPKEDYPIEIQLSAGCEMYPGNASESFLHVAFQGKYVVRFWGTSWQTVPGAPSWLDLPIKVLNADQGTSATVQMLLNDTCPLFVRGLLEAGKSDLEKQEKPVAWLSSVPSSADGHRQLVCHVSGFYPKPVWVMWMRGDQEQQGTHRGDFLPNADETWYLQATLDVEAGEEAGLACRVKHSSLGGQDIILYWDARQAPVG
T1 sequence (P01887 21-119 partner): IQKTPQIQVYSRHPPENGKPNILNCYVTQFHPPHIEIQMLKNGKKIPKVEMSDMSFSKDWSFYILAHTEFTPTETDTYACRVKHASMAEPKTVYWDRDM
Text: Determination of Ki. The solution equilibrium dissociation constant (Ki) for glycolipid-CD1d interactions can be determined using microarrays in a competitive assay. The equation that describes the binding of the two ligands to the same site on the protein is identical to that for the competitive inhibition of an enzyme-catalyzed reaction. It is possible to take advantage of the convenience of IC50 measurements and still report inhibitory potency in terms of true Ki values. The final forms of the relationship can be expressed as
In this assay, the concentration of the protein is kept constant at or near the KD, surf (˜100-200 nM of CD1d). The glass slide is incubated with solutions containing varying concentrations of the glycolipid (covering about two orders of magnitude) and the protein.
Microarray Fabrication. Microarrays were printed (Genomic Solutions, Gene Machine) by robotic pin (SMP2B, TeleChem International Inc.). Approximately […] of various concentrations of amine-containing compounds 1-4 in DMSO were deposited onto slides from a 384 well plate. The slide for: (1) the scope of printing concentration studies: NHS-coated glass slides were printed with compounds 1-4 at 20 different concentrations (1000, 800, 600, 400, 200, 100, 80, 60, 40, 20, 10, 8, 6, 4, 2, 1, 0.8, 0.6, 0.4, 0.2 μM) from right to left with 10 replicates vertically placed in each sub-array. Six identical sub-arrays were fabricated in a 1×6 pattern and each sub-array consisted of a 20×10 pattern of spots, with a 0.3 mm pitch. After 2 h, the surface of the slide was divided by permanent marker to avoid contamination for later protein incubation; (2) the slide for FIG. 2 was printed with compound 1 with concentrations of 1000 (left most column), 900, 800, 700, 600, 500, 400, 300, 200, 100, 80, 60, 40, 20, 10, 5 μM (right-most column, 16 different conc.) with 16 replicates vertically placed in each grid, and totally 16 replicate (8×2 pattern) sub-arrays in one slide; (3) the slides for Ki determinations: the slides were printed of compound 1 with concentration of 1000, 900, 800 μM from right to left 81 replicates placed in each grid (9×9 pattern) and totally 44 sub-arrays replicates (4×11 pattern, each subarray is approximately 5 mm (width)×6 mm (length) area) in one slide. After 24 hours reaction, the slides were washed with PBST buffer (0.05% Tween 20) for 30 min and then blocked with blocking solution (super-block blocking buffer in PBS, Pierce) for another 1 h. The slides were dried under a flow of argon gas and stored at room temperature in a desiccator. The slides were washed with PBS buffer (pH 7.4) before use.
Competitive Binding Assay. Solutions of the competitors at different concentration (400 to 0.1 μM) were prepared and 5 μl aliquots incubated with protein (5 μl, 100˜250 nM). The mixture was then placed in a 384 well microtiter plate, covered, and left for five to eight hours. An aliquot of this solution (8 μL) was loaded onto the slides and incubated for 1 hour under a humidifying container at room temperature. The following procedure is the same as above the direct binding assay in washing procedure and applying secondary antibody. To get the data, Each inhibitor was assayed under this system at least three times and average Ki values are reported.
Data analysis. Extraction of spot intensity data was performed using ArrayVision 8.0 (Applied Precision). The background, calculated as the median of pixel intensities from the local area around each spot, was subtracted from the mean pixel intensity within each spot. To graphically represent the data, the values of the background-subtracted signal intensities were plotted against the known concentration of the protein spotted in the array, using the commercial non-linear regression program GraphPad PRISM 4 (GraphPad, San Diego). The values obtained from the competition assay were plotted against the known concentrations of the competitors applied on the slide. […]

CD1d [3] = conditions: read-out: dissociation constant from ITC; cited from earlier work
CD1d [4] = conditions: read-out: dissociation constant from IEF; cited from earlier work
[5] = Water solubility of glycolipids; assay type: physicochemical

| Structure (SMILES) | IFN-γ secretion (in words) [1] | binding to CD1d in competition assay (in words) [2] | selectivity IFN-γ vs IL-4 (in words) [1] | also measured |
| --- | --- | --- | --- | --- |
| CCCCCCCCCCCCCC[C@@H](O)[C@@H](O)[C@H](CO[C@H]1O[C@H](CO)[C@H](O)[C@H](O)[C@H]1O)NC(=O)CCCCCCCc1ccccc1 [Compound 13] | peak IFN-γ secretions among the spacer chain elongation in acyl modification (11-17) | about one order of magnitude stronger with CD1d than α-GalCer |  |  |
| CCCCCCCCCCCCCC[C@@H](O)[C@@H](O)[C@H](CO[C@H]1O[C@H](CO)[C@H](O)[C@H](O)[C@H]1O)NC(=O)CCCCCCCc1ccc(OC)cc1 [Compound 19] | highest IFN-γ cytokine production, more than double that of the α-GalCer induced IFN-γ secretion |  |  |  |
| CCCCCCCCCCCCCC[C@@H](O)[C@@H](O)[C@H](CO[C@H]1O[C@H](CO)[C@H](O)[C@H](O)[C@H]1O)NC(=O)CCCCCCCCCCc1ccc(-c2ccccc2)cc1 [Compound 25] |  | lower binding activity |  |  |
| CCCCCCCCCCCCCCCCCCCCCCCCCC(=O)N[C@@H](CO[C@H]1O[C@H](CO)[C@H](O)[C@H](O)[C@H]1O)[C@H](O)[C@H](O)CCc1ccccc1 [Compound 26] |  | weaker agonist of mCD1d |  |  |
| CCCCCCCCCCCCCC[C@@H](O)[C@@H](O)[C@H](CO[C@H]1O[C@H](CO)[C@H](O)[C@H](O)[C@H]1O)NC(=O)CCCCCCCc1ccc(-c2ccccc2)cc1 [Compound 21] | less IFN-γ production | lower binding activity; also recorded: weaker affinities to CD1d | low selectivity between IFN-γ and IL-4 |  |
| CCCCCCCCCCCCCC[C@@H](O)[C@@H](O)[C@H](CO[C@H]1O[C@H](CO)[C@H](O)[C@H](O)[C@H]1O)NC(=O)CCCCCCCCCCCCCCc1ccccc1 [Compound 17] | less IFN-γ production | weaker affinities to CD1d | low selectivity between IFN-γ and IL-4 |  |
| CCCCCCCCCCCCCCCCCCCCCCCCCC(=O)N[C@@H](CO[C@H]1O[C@H](CO)[C@H](O)[C@H](O)[C@H]1O)[C@H](O)[C@H](O)CCCCCCCCCCCCCC [α-GalCer, α-galactosyl ceramide] |  |  |  | Kd (CD1d [3]): 9.7 µM; Kd (CD1d [4]): 5.9 µM; solubility in aqueous solution (in words) [5]: low solubility; Ki [2]: 14 µM |
| CCCCCCCCCCCCCC[C@@H](O)[C@@H](O)[C@H](CO[C@H]1O[C@H](CO)[C@H](O)[C@H](O)[C@H]1O)NC(=O)CCCCCCCCCCc1ccccc1 [Compound 16] |  | about one order of magnitude stronger with CD1d than α-GalCer |  |  |
| CCCCCCCCCCCCCC[C@@H](O)[C@@H](O)[C@H](CO[C@H]1O[C@H](CO)[C@H](O)[C@H](O)[C@H]1O)NC(=O)CCCCCCCc1ccc(F)cc1 [Compound 18] | induce the most IFN-γ secretions; also recorded: highest IFN-γ cytokine production, more than double that of the α-GalCer induced IFN-γ secretion | bind most strongly to CD1d; also recorded: enhance the binding by approximately one order of magnitude, compared with parent compound 13 | more than three times more selective for IFN-γ release | Ki [2]: 0.14 µM; binding to CD1d in competition assay (in words) ([2]; listed as para-fluoroheptaphenyl-modified α-GalCer): two orders of magnitude stronger than α-GalCer |
| CCCCCCCCCCCCCC[C@@H](O)[C@@H](O)[C@H](CO[C@H]1O[C@H](CO)[C@H](O)[C@H](O)[C@H]1O)NC(=O)CCCCCCc1ccccc1 [Compound 12] |  | about one order of magnitude stronger with CD1d than α-GalCer |  |  |
